Assay results published in PubChem BioAssay (NCI).
Several values for one entry are separate records, joined by “and”; a condition that tells them apart may be missing. Equal values may be shown once.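 Dose response: 5 concentrations. Exposure: 48 h. Format: 96-well plates. Endpoint: linear interpolation; highest concentration if not reached. At the GI50, growth is halved. At the TGI there is no net growth.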

Experiments:
P388/ADR leukemia = experiment: NCI tumour cell line growth inhibition, 48 h
SN12K1 renal = experiment: NCI tumour cell line growth inhibition, 48 h

Row | SMILES | GI50 (P388/ADR leukemia) | GI50 (SN12K1 renal) [µM] | TGI (SN12K1 renal) | TGI (P388/ADR leukemia) [µM]
1 | C[C@@](O)(/C=C/[C@H]1CC=CC(=O)O1)[C@@H](C[C@@H](O)\C=C/C=C\C=C\CO)OP(=O)(O)O | 0.963 µM and 0.989 µM | 2.69 | 30.7 µM and 19.3 µM | –
2 | O=C1N[C@H]2[C@H](O)[C@H](O)[C@@H](O)[C@H](O)[C@@H]2c2cc3c(c(O)c21)OCO3 | – | – | 0.36 µM | 0.21
